This assay relates to E. coli K-12 MG 1655. The experiment in a line: microbial growth assay by impedance (capacitance and resistance) measurement in 30 μl wells. It is filed as cell-based. To be noted: 37° C. The method, then: As an example of the utilization of the apparatus 20 of FIGS. 1 and 2, a single colony of E. coli K-12 MG 1655 was used to inoculate five ml of Luria Broth (LB) which was grown overnight at 37° C. with constant aeration. A 1% inoculum was used to subculture in fresh LB medium and grew to OD600 of 0.5 (measured by a Beckman DU-20 spectrophotometer). 15 μl of cell culture was mixed with 15 μl of LB medium in samples with and without ampicillin (100 μg/ml), and aliquoted into the wells 22. In addition, an equal volume of LB medium (30 μl) with ampicillin was aliquoted into an additional well to function as a negative control.
The switch/control unit 34 was used to switch the connection of the LCR meter 36 to the conductors 30 and 31 leading to the electrodes of the wells 22 in sequence. A 10 mV rms alternating current signal of varying frequency (between 75 kHz and 30 MHz) was used for electrical excitation and was applied between the electrodes 24 and 25. […] At each frequency, impedance (capacitance and resistance) was measured between the electrodes 24 and 25 for each of the four wells. […] The values of the impedance (assuming a parallel RC equivalent circuit model, resistance and capacitance, R and C) between the electrodes 24 and 25 at each of the cells was recorded periodically over about 16 hours under the control of the computer 41. […]

Each structure is given as a SMILES string.

Take `CC1(C)S[C@@H]2[C@H](NC(=O)[C@H](N)c3ccccc3)C(=O)N2[C@H]1C(=O)O` [ampicillin]: the “capacitance (and resistance) between the electrodes at a well containing bacteria over time” value (ampicillin 100 μg/ml in LB medium, measured at 75 kHz and 400 kHz, about 16 hours, relative to control well without bacteria, without ampicillin capacitance increases exponentially) is reported as “remains constant”. In addition, the “time within which the antibacterial effect can be detected” value (ampicillin 100 μg/ml, E. coli in LB medium, impedance readout) is listed as “less than one hour”.

The values above are taken from US6649402B2, “Microfabricated microbial growth assay method and apparatus” (Wisconsin Alumni Research Foundation, priority 2001, dated 2003).
